Like-named read-outs stand apart in the source and are kept apart here.
Legend:
[1] = saluretic efficiency test in rats: elimination of water, sodium, chloride and potassium in 6 h urine after oral dosing; format: in vivo; details: for Quotient Na/K / Mean percentage variation in the elimination of Chloride / Mean percentage variation in the elimination of H2O / Mean percentage variation in the elimination of Sodium / Mean percentage variation in the elimination of potassium / change in vivo at 40 µmol/kg / change in vivo at 80 µmol/kg: rats, oral; for change in vivo at 40 µmol/kg / change in vivo at 80 µmol/kg: Rattus norvegicus
Description: In order to test the saluretic efficiency of the compounds of the invention rats having a weight of 150 to 200 g were used. The animals were kept without food, but not without drinking water, for 15 hours before the beginning of the test. The test substances were administered to groups of four rats, of substantially equal weight, with a rigid stomach probe in a 1% methyl cellulose slime. The dose required per 100 g animal (unit dosage in μmol/kg body weight) was contained in one ml. Following the administration of the substance the rats were given 5 ml 0.9% sodium chloride solution per 100 g body weight p.o. and placed in a diuresis funnel after manually emptying the bladder. Urine was collected for 6 hours in an airconditioned chamber at 24°±1° C. and a relative air humidity of 50±5%. The diuretic effect of a particular dose was tested on at least two, but more frequently however on four to eight groups of rats. Two sodium chloride controls were also used for each test day.
At the end of the collecting periods the volumes of urine discharged per group were noted and the pH value and also the content of sodium, potassium (flame-photometrically) and chloride (measured argentometrically with the determination of the end point potentiometrically) were determined.
From the analysis results the quantities of Na^+, K^+ and Cl^- eliminated were calculated in […] body weight, and the values thus obtained compared with those of the control animals.
Means values and twice the standard deviation were calculated from the data for the sodium chloride controls, in order to determine the normal range. Then, for the values found with the test substances, the percentage variations from the average in respect of these parameters were calculated and tabulated. In this connection, with the results given in Table 1, the upper limit of the normal range, which is defined as the mean value plus twice the standard deviation, was selected as the reference quantity for the variations. In this way relevant hyper-eliminations could clearly be recognised.
In Table 2, the mean percentage variations in potassium elimination after administration of the compounds in accordance with the invention are compared with the mean value of the potassium elimination in the case of the sodium chloride controls. At the same time the […] ratio is given which provides conclusive evidence of the effective saluretic property. The larger this quotient is, then the more sodium than potassium is eliminated in proportion.

[2] = comparison of toxicity in mice: oral LD50 by the Lichtfiel & Wilcoxon method; format: in vivo; details: observation period 7 days, 95% confidence limit in brackets
Description: In Table 3 the mean lethal doses for mice, administered orally (LD50 determination by the […] & WILCOXON method - J.Pharmacol. Exp. Ther. 96,98 (1949)) are compared.

[3] = 40 μmol/kg body wt., deviation from control mean plus twice the standard deviation, 6 h urine
[4] = 80 μmol/kg body wt., deviation from control mean plus twice the standard deviation, 6 h urine
[5] = 6 h, 40 μmol/kg body wt., relative to mean K+ elimination of the controls, read-out: Mean percentage variation in the elimination of potassium
[6] = 6 h, 80 μmol/kg body wt., relative to mean K+ elimination of the controls, read-out: Mean percentage variation in the elimination of potassium
[7] = 40 μmol/kg body wt., deviation from control mean plus twice the standard deviation, 6 h urine, read-out: Mean percentage variation in the elimination of Chloride
[8] = 40 μmol/kg body wt., deviation from control mean plus twice the standard deviation, 6 h urine, read-out: Mean percentage variation in the elimination of H2O
[9] = 40 μmol/kg body wt., deviation from control mean plus twice the standard deviation, 6 h urine, read-out: Mean percentage variation in the elimination of Sodium
[10] = 80 μmol/kg body wt., deviation from control mean plus twice the standard deviation, 6 h urine, read-out: Mean percentage variation in the elimination of Chloride
[11] = 80 μmol/kg body wt., deviation from control mean plus twice the standard deviation, 6 h urine, read-out: Mean percentage variation in the elimination of H2O
[12] = 80 μmol/kg body wt., deviation from control mean plus twice the standard deviation, 6 h urine, read-out: Mean percentage variation in the elimination of Sodium
[13] = dose of 10 mol/kg body weight, average

| Compound | Quotient Na/K ([1]; 40 μmol/kg body wt.) | Quotient Na/K ([1]; 80 μmol/kg body wt.) | change in vivo at 40 µmol/kg [1, 5] [%] | change in vivo at 80 µmol/kg [1, 6] [%] | change in vivo at 40 µmol/kg [1, 7] [%] | change in vivo at 40 µmol/kg [1, 8] [%] | change in vivo at 40 µmol/kg [1, 9] [%] | change in vivo at 80 µmol/kg [1, 10] [%] | change in vivo at 80 µmol/kg [1, 11] [%] | change in vivo at 80 µmol/kg [1, 12] [%] | LD50 ([2]; mouse, in vivo, read-out: LD50) [mg/kg] | other results |
| --- | --- | --- | --- | --- | --- | --- | --- | --- | --- | --- | --- | --- |
| 1-(2'-methoxy-3'-methyl-5'-tertiary-butylphenyl)-1-(2"-methoxy-4"-hydroxyphenyl- (or 2"-hydroxy-4"-methoxyphenyl)-2-piperidino-propan-1-ol [T 2458] | 5.60 | 8.06 |  |  |  |  |  |  |  |  |  | Mean percentage variation in the elimination of Chloride [1, 3]: 16.9%; Mean percentage variation in the elimination of H2O [1, 3]: 30.9%; Mean percentage variation in the elimination of Sodium [1, 3]: 40.4%; Mean percentage variation in the elimination of potassium ([1]; 40 μmol/kg body wt., relative to mean K+ elimination of the controls): 49.0%; Mean percentage variation in the elimination of Chloride [1, 4]: 59.0%; Mean percentage variation in the elimination of H2O [1, 4]: 83.8%; Mean percentage variation in the elimination of Sodium [1, 4]: 84.2%; Mean percentage variation in the elimination of potassium ([1]; 80 μmol/kg body wt., relative to mean K+ elimination of the controls): 37.7%; LD50 [2]: 3200 mg/kg |
| Nc1nc(N)c2nc(-c3ccccc3)c(N)nc2n1 [2.4.7-triamino-6-phenyl-pteridine, reference compound] | 10.16 | 13.20 | -43.9 | -55.1 | -11.7 | -1 | -4 | -11.7 | -2 | -0.2 |  |  |
| NS(=O)(=O)c1cc2c(cc1Cl)NCNS2(=O)=O [6-chloro-3.4.-dihydro-7-sulphamoyl-2H-1.2.4.-benzothiadiazine-1.1.-dioxide, reference compound] |  |  |  |  |  |  |  |  |  |  |  | maximum hyper-elimination, chloride ([1]; dose of 10 μmol/kg body weight, average): 17.3%; maximum hyper-elimination, sodium [1, 13]: 29.6%; maximum hyper-elimination, water [1, 13]: 19.9%; Na/K ratio of the quantities eliminated ([1]; maximum effective dose, 10 μmol/kg body wt.): 4.86; hyper-elimination of potassium ([1]; maximum effective dose, 10 mol/kg body wt.): 58.3% |
| COc1cc(C)c(C(O)(c2ccccc2)C(C)N2CCCCC2)cc1C(C)C (stereo not drawn) [T 1523, 1-(4'-methoxy-2'-methyl-5'-isopropylphenyl)-1-phenyl-2-piperidino-propan-1-ol] | 5.35 | 6.72 | 25.5 | 13.3 | -5.1 | 28.9 | 13.1 | 14.2 | 39.6 | 28.2 | > 3200 |  |
| COc1cc(C)c(C(O)(c2ccccc2)C(C)N2CCCC2)cc1C(C)(C)C (stereo not drawn) [T 1856, 1-(4'-methoxy-2'-methyl-5'-tert-butylphenyl)-1-phenyl-2-pyrrolidino-propan-1-ol] | 6.18 | 7.16 | 25.5 | 22.4 | 19.4 | 41 | 30.6 | 32.5 | 59.7 | 47.6 | 2200 |  |
| COc1c(C)cc(C(C)(C)C)cc1C(O)(c1ccccc1)C(C)N1CCCCC1 (stereo not drawn) [T 1857, 1-(2'-methoxy-3'-methyl-5'-tert-butylphenyl)-1-phenyl-2-piperidino-propan-1-ol] | 7.04 | 7.09 | 30.6 | 29.6 | 32.9 | 52 | 54.8 | 36 | 56.5 | 54.6 | 3820 |  |
| COc1ccc(C(O)(c2cc(C(C)C)c(OC)c(C(C)C)c2)C(C)N2CCCCC2)cc1OC (stereo not drawn) [T 1882, 1-(4'-methoxy-3',5'-diisopropylphenyl)-1-(3",4"-dimethoxyphenyl)-2-piperidino-propan-1-ol] | 6.52 | 7.41 | 13.3 | -12.2 | 6.3 | 17.7 | 24.4 | -4.4 | 7.5 | 9.5 | 3400 |  |
| CCCC(C)(C)c1cc(C)c(OC)c(C(O)(c2ccccc2)C(C)N2CCCC2)c1 (stereo not drawn) [T 2111, 1-(2'-methoxy-3'-methyl-5'-tertiary-hexylphenyl)-1-phenyl-2-pyrrolidino-propan-1-ol] | 6.64 | 8.77 | 19.4 | -7.1 | 9.5 | 36.8 | 33.5 | 23.4 | 33.8 | 37.1 | 4450 |  |
| Cc1c(C(O)(c2ccccc2)C(C)N2CCCCC2)cc2c(c1C)OCCC2 (stereo not drawn) [T 2129, 1-(7',8'-dimethylchromanyl-(6'))-1-phenyl-2-piperidino-propan-1-ol] | 7.02 | 5.23 | 12.3 | 35.7 | 12.4 | 23.9 | 32.6 | 22 | 21.3 | 19.4 | > 3200 |  |
| COc1c(C)c(C)c(C(O)(c2ccccc2)C(C)N2CCCCC2)c(C)c1C (stereo not drawn) [T 2152, 1-(4'-methoxy-2',3',5',6'-tetramethylphenyl)-1-phenyl-2-piperidino-propane-1-ol] | 6.67 | 6.55 | 9.2 | 9.2 | 11.6 | 22.9 | 22.7 | 5.6 | 22.6 | 20.4 |  |  |
| COc1ccc(C(O)(c2cc(C(C)C)c(OC)c(C(C)C)c2)C(C)N2CCCCC2)cc1 (stereo not drawn) [T 2237, 1-(4'-methoxy-3',5'-diisopropylphenyl)-1-(4"-methoxyphenyl)-2-piperidino-propan-1-ol] | 6.93 | 7.95 | 13.3 | 19.4 | 24.3 | 40.8 | 32.1 | 57.1 | 67.9 | 59.8 | > 6400 |  |
| CCOc1ccc(C(O)(c2cc(C(C)C)c(OC)c(C(C)C)c2)C(C)N2CCCCC2)cc1 (stereo not drawn) [T 2258, 1-(4'-methoxy-3',5'-diisopropylphenyl)-1-(4"-ethoxyphenyl)-2-piperidino-propan-1-ol] | 6.11 | 7.32 | 19.4 | 1 | 12.8 | 28.1 | 22.9 | 17.3 | 32.3 | 24.6 | > 4500 |  |
| COc1ccc(C(C)(C)C)cc1C(O)(c1ccccc1)C(C)N1CCCCC1 (stereo not drawn) [T 2259, 1-(2'-methoxy-5'-tertiary-butylphenyl)-1-phenyl-2-piperidino-propan-1-ol] | 6.40 | 6.84 | 19.4 | 38.8 | 94 | 46.5 | 28.7 | 110 | 76.6 | 59.8 | 560 |  |
